Experimental data as given in publication PMC7377239, “Cardiovascular Effects of Polychlorinated Biphenyls and Their Major Metabolites” (Environmental Health Perspectives, 2020).
Read-outs that look alike come from different tables or passages of the source.

What was measured:
[1] = tested on: iCell endothelial cells (human iPSC-derived ECs); assay: High-content imaging cytotoxicity in iCell endothelial cells, 24 h; format: cell-based; conditions: Homo sapiens, Endothelial cell, iPSC-EC, 24 hr; for viability at 0.1 µM / activity at 0.1 µM: 0.10 µM; for minimal effective concentration: top concentration 100.00 µM
How it was run: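 Readouts were vehicle-normalised and fitted to a four-parameter logistic model. POD was set at one SD beyond 0.5% DMSO control means, and 100 µM was assigned when no response was seen. Cells were monolayers of iCell endothelial cells imaged after 24 h compound exposure using nuclear, mitochondrial and calcein dyes.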

HUVECs = assay: Tube formation (tubulogenesis) assay in HUVECs, 18 h; format: cell-based, human; conditions: Homo sapiens, HUVEC, 18 h, HUVECs; for activity at 0.1 µM: 0.10 µM; for minimal effective concentration: top concentration 100.00 µM
How it was run: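 HUVECs (passage 1–5) seeded on reduced-growth-factor basement membrane and exposed to compounds overnight at 37°C, 5% CO2, in 2× maintenance medium with 12.5 ng/mL VEGF; 0.5% DMSO vehicle. Calcein AM-stained tube networks imaged and analysed; vehicle-normalized readouts fit to four-parameter logistic, POD set at one SD of vehicle means.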

[2] = 0.00 µM control = 100.00, read-out: endo.cyto.24hr
[3] = 0.00 µM control = 100.00, read-out: endo.mito.24hr
[4] = 0.00 µM control = 100.00, read-out: endo.mitoint.24hr
[5] = 0.00 µM control = 100.00, read-out: endo.nma.24hr
[6] = 0.00 µM control = 100.00, read-out: endo.tc.24hrs
[7] = 0.00 µM = 100.00, read-out: huvec.mtl.18hr
[8] = 0.00 µM = 100.00, read-out: huvec.tlps.18hr
[9] = 0.00 µM = 100.00, read-out: huvec.tta.18hr
[10] = 0.00 µM = 100.00, read-out: huvec.ttl.18hr

`Oc1ccc(-c2cccc(Cl)c2)cc1Cl` [4-OH PCB11] was tested, and the viability at 0.01 µM [1, 2] was 99.5%, the activity at 0.01 µM [1, 3] was 99.5% and the activity at 0.01 µM [1, 4] was 103%. It also gave an activity at 0.01 µM [1, 5] of 103%, a viability at 0.01 µM [1, 6] of 99.5% and a viability at 0.1 µM [1, 2] of 102%. For the same compound, the activity at 0.1 µM [1, 3] was 102%, the activity at 0.1 µM [1, 4] was 94.9% and the activity at 0.1 µM [1, 5] was 99.2%. For the same compound, the viability at 0.1 µM [1, 6] was 102%, the viability at 1 µM [1, 2] was 97.1% and the activity at 1 µM [1, 3] was 96.8%. For the same compound, the activity at 1 µM [1, 4] was 97.1%, the activity at 1 µM [1, 5] was 102% and the viability at 1 µM [1, 6] was 97.1%. For the same compound, the viability at 10 µM [1, 2] was 106%, the activity at 10 µM [1, 3] was 106% and the activity at 10 µM [1, 4] was 92.4%. For the same compound, the activity at 10 µM [1, 5] was 97.2%, the viability at 10 µM [1, 6] was 106% and the viability at 100 µM [1, 2] was 57.3%. The activity at 100 µM [1, 3] was 52.7%, the activity at 100 µM [1, 4] was 68% and the activity at 100 µM [1, 5] was 88%. It also gave a viability at 100 µM [1, 6] of 78.1%, a minimal effective concentration ([1]; read-out: endo.cyto.24hr POD) of 43.6 µM and a minimal effective concentration ([1]; read-out: endo.mito.24hr POD) of 43.6 µM. The minimal effective concentration ([1]; read-out: endo.mitoint.24hr POD) was 13 µM, the minimal effective concentration ([1]; read-out: endo.nma.24hr POD) was 9.66 µM and the minimal effective concentration ([1]; read-out: endo.tc.24hrs POD) was 62.1 µM. The activity at 0.01 µM (HUVECs; [7]) was 113%, the activity at 0.01 µM (HUVECs; [8]) was 135% and the activity at 0.01 µM (HUVECs; [9]) was 121%. The activity at 0.01 µM (HUVECs; [10]) was 115%, the activity at 0.1 µM (HUVECs; [7]) was 115% and the activity at 0.1 µM (HUVECs; [8]) was 127%. It also gave an activity at 0.1 µM (HUVECs; [9]) of 133%, an activity at 0.1 µM (HUVECs; [10]) of 125% and an activity at 1 µM (HUVECs; [7]) of 112%. For the same compound, the activity at 1 µM (HUVECs; [8]) was 149%, the activity at 1 µM (HUVECs; [9]) was 110% and the activity at 1 µM (HUVECs; [10]) was 107%. The activity at 10 µM (HUVECs; [7]) was 77.3%, the activity at 10 µM (HUVECs; [8]) was 94.8% and the activity at 10 µM (HUVECs; [9]) was 89.2%. It also gave an activity at 10 µM (HUVECs; [10]) of 81.5%, an activity at 100 µM (HUVECs; [7]) of 62.9% and an activity at 100 µM (HUVECs; [8]) of 61.6%. For the same compound, the activity at 100 µM (HUVECs; [9]) was 84.3%, the activity at 100 µM (HUVECs; [10]) was 85.2% and the minimal effective concentration (HUVECs; read-out: huvec.mtl.18hr POD) was 7.09 µM. The minimal effective concentration (HUVECs; read-out: huvec.tlps.18hr POD) was 35.3 µM, the minimal effective concentration (HUVECs; read-out: huvec.tta.18hr POD) was 100 µM and the minimal effective concentration (HUVECs; read-out: huvec.ttl.18hr POD) was 4.15 µM.
